# Patent US12121566B2, “Methods for treating gout” (Horizon Therapeutics USA, Inc., priority 2019, dated 2024)
# Experiments:
# [1] = test system: anti-pegloticase antibodies, anti-PEG antibodies; experiment: Immunogenicity in clinical trials: antibody incidence and its relation to response and infusion reactions; assay type: in vivo, human
# Protocol: A relationship between the loss of urate-lowering efficacy, incidence of IRs, and high-titer antibody formation was identified in a post-hoc analysis of the pooled data from the Phase 3 studies. […] In one study, 69 (41%) of 169 patients receiving pegloticase developed high titer anti-pegloticase antibodies and subsequently lost response to the drug. In a second study, only 1 of 52 participants with high antibody titers maintained a response to pegloticase (serum urate <6 mg/dL). In addition, 60% participants with high titers developed IR. Anti-pegloticase antibodies were largely directed to the polyethylene glycol (PEG) portion of the molecule and altered the pharmacokinetic clearance of pegloticase, resulting in inhibition of SUA lowering activity. […] In addition, 31 of 52 (60%) patients with titers exceeding 1:2430 developed IRs. […] By preventing the formation of anti-pegloticase antibodies, a tolerizing dose regimen should prevent loss of response to the drug and decrease the incidence of IRs associated with it.
# Anti-pegloticase antibodies developed in 92% of patients treated with KXX every 2 weeks, and 28% for placebo. Anti-PEG antibodies were also detected in 42% of patients treated with KXX. High anti-pegloticase antibody titer was associated with a failure to maintain pegloticase-induced normalization of uric acid. The impact of anti-PEG antibodies on patients' responses to other PEG-containing therapeutics is unknown.
# There was a higher incidence of infusion reactions in patients with high anti-pegloticase antibody titer: 53% (16 of 30) in the KXX every 2 weeks group compared to 6% in patients who had undetectable or low antibody titers.
# [2] = test system: patients with chronic gout refractory to conventional therapy; experiment: Infusion reactions with the dosage regimen described herein (stopping at SUA >6 mg/dL); assay type: in vivo, human; conditions: dosage regimen as described herein, strict adherence to stopping at serum uric acid greater than 6 mg/dL
# Protocol: Study Design—In order to evaluate a tolerizing regimen of pegloticase (i.e., the main study), an open label, multicenter, 24-week study is performed. Eligible subjects weighing <120 kg receive pegloticase 8 mg intravenously (IV) on a weekly basis (week 1 through week 3—“Tolerizing Period”), followed by 8 mg IV every 2 weeks through week 25 for a total of 14 doses. Subjects weighing ≥120 kg are sequentially assigned to 1 of 3 different loading doses (8, 12, and 16 mg) on Study Day 1, and then receive 8 mg on weeks 2 and 3, followed by 8 mg every 2 weeks through week 25 for a total of 14 doses.
# Eligible subjects weighing <120 kg will receive pegloticase 8 mg IV every 2 weeks through week 25 for a total of 13 doses. Subjects will also receive AZA (1.25 mg/kg orally daily for 1 week then 2.5 mg/kg orally daily) beginning 2 weeks prior to the first dose of pegloticase through week 25. Subjects are monitored for efficacy and safety endpoints, including hematology and liver function tests, through week 25. Subjects also have blood drawn for trough pegloticase, anti-pegloticase antibody, and anti-PEG antibody levels prior to each dose after week 1, on weeks 3, 5, 7, 9, 11, 13, 15, 17, 19, 21, 23, and 25; and sampling for trough AZA metabolite levels prior to all doses of pegloticase. […]
# [3] = test system: patients with chronic gout refractory to conventional therapy; experiment: Two replicate randomized, double-blind, placebo controlled six-month studies (Trial 1 and Trial 2): urate lowering and tophi; assay type: in vivo, human
# Protocol: The efficacy of KXX was studied in adult patients with chronic gout refractory to conventional therapy in two replicate, multicenter, randomized, double-blind, placebo controlled studies of six months duration: Trial 1 and Trial 2. Patients were randomized to receive KXX 8 mg every 2 weeks or every 4 weeks or placebo in a 2:2:1 ratio.
# Studies were stratified for the presence of tophi. Seventy-one percent (71%) of patients had baseline tophi. All patients were prophylaxed with an oral antihistamine, intravenous corticosteroid and acetaminophen. Patients also received prophylaxis for gout flares with non-steroidal anti-inflammatory drugs (NSAIDs) or colchicine, or both, beginning at least one week before KXX treatment unless medically contraindicated or not tolerated. Patients who completed the randomized clinical trials were eligible to enroll in a 2-year open label extension study.
# To assess the efficacy of KXX in lowering uric acid, the primary endpoint in both trials was the proportion of patients who achieved plasma uric acid (PUA) less than 6 mg/dL for at least 80% of the time during Month 3 and Month 6.
# The effect of treatment on tophi was a secondary efficacy endpoint and was assessed using standardized digital photography, image analysis, and a Central Reader blinded to treatment assignment. Approximately 70% of patients had tophi at baseline. A pooled analysis of data from Trial 1 and Trial 2 was performed as pre-specified in the protocols. At Month 6, the percentage of patients who achieved a complete response (defined as 100% resolution of at least one target tophus, no new tophi appear and no single tophus showing progression) was 45%, 26%, and 8%, with KXX 8 mg every 2 weeks, KXX 8 mg every 4 weeks, and placebo, respectively. The difference between KXX and placebo was statistically significant for the every-2-week dosing regimen, but not for the every-4-week dosing regimen.
# [4] = test system: patients with refractory chronic gout; conditions: Phase 2 program; cited from earlier work
# [5] = post-hoc, if KXX stopped after 2 consecutive uric acid levels greater than 6 mg/dL
# [6] = post-hoc, if KXX stopped when uric acid rose to greater than 6 mg/dL on a single occasion
substance,measurement,setting,value
pegloticase,patients who developed anti-pegloticase antibodies,[1]; KXX every 2 weeks,92%
same,incidence of infusion reactions in patients with high anti-pegloticase antibody titer,"[1]; KXX every 2 weeks group, 16 of 30",53%
same,incidence of infusion reactions in patients with undetectable or low antibody titers,"[1]; human, in vivo",6%
same,patients with anti-PEG antibodies detected,[1]; patients treated with KXX,42%
same,infusion reactions that occurred,[2],only a single infusion reaction occurred
same,efficacy in patients with creatinine clearance less than or equal to 62.5 mL/min,[3]; KXX 8 mg every 2 weeks,No overall differences
same,percentage of patients who achieved a complete response of tophi,"[3]; Month 6, pooled Trial 1 and Trial 2, KXX 8 mg every 2 weeks",45%
same,percentage of patients who achieved a complete response of tophi,"[3]; Month 6, pooled Trial 1 and Trial 2, KXX 8 mg every 4 weeks",26%
same,Number (%) of Subjects Who Met Response Criteria (plasma uric acid <6 mg/dL for at least 80% of the time during Months 3 and 6),"[3]; Trial 1, 8 mg every 2 weeks, N 43",20 (47%) Number (%)
same,Number (%) of Subjects Who Met Response Criteria (plasma uric acid <6 mg/dL for at least 80% of the time during Months 3 and 6),"[3]; Trial 1, 8 mg every 4 weeks, N 41",8 (20%) Number (%)
same,Number (%) of Subjects Who Met Response Criteria (plasma uric acid <6 mg/dL for at least 80% of the time during Months 3 and 6),"[3]; Trial 2, 8 mg every 2 weeks, N 42",16 (38%) Number (%)
same,Number (%) of Subjects Who Met Response Criteria (plasma uric acid <6 mg/dL for at least 80% of the time during Months 3 and 6),"[3]; Trial 2, 8 mg every 4 weeks, N 43",21 (49%) Number (%)
same,mean plasma uric acid level,"[3]; approximately 24 hours following the first dose, KXX 8 mg every 2 weeks group",0.7 mg/dL
same,efficacy outcome,[3]; [5],little change
same,incidence of infusion reactions,[3]; [5],half
same,reduction of success rates for the primary efficacy endpoint,[3]; [6],approximately 20%
same,reduction of the incidence of infusion reactions,[3]; [6],approximately 67%
same,dose-response plateau dose,[4],12 mg
same,minimally effective dose,[4],4 mg
same,safe and optimally effective dose,[4],8 mg
